Data taken from patent publication US20100314319A1, “HALOGENATED AMIDES AS BIOCIDES FOR BIOFILM CONTROL” (priority 2009, published 2010).
Where two headings read alike, the source gives them in different places.

Experiments:
Free Legionella = type: cell-based, Legionella pneumophila
[1] = test system: amoeba fed Legionella pneumophila (AfLp); type: cell-based; settings: for Active concentration required for complete kill (6 log reduction): Amoeba fed Legionella
[2] = test system: Biofilms of P. aeruginosa ATCC 10145; assay: Efficacy against biofilm associated bacteria (Calgary biofilm device, viable sessile bacteria); type: cell-based; settings: pH 8.5, 37° C.
Method: Biofilms of P. aeruginosa ATCC 10145 are grown in Calgary biofilm devices (Innovotech, Alberta, Canada) for 42 hours. Trypticase Soy Broth (TSB) is used in the biofilm devices as the culture medium. After the incubation period, loosely associated cells are removed from the biofilms that develop on the surfaces of the submerged pegs by rinsing with sterile 0.85% NaCl. The biofilms are than treated with DBMAL (inventive biocide), glutaraldehyde (comparative biocide), or DBNPA (comparative biocide). A dilute salts solution is used as the test medium for the efficacy studies. The salts solution contains (in grams per liter of deionized water) CaCl2, 0.2203 g; MgSO4, 0.1847 g; and NaHCO3, 0.2033 g. The final pH of the solution is adjusted to 8.5.
The concentrations of each active tested are 100 ppm, 50 ppm, 25 ppm, 12.5 ppm in the salts solution and the contact times are for 4 hours, 24 hours and 48 hours, respectively. In all cases, the incubation temperature is 37° C. Sterile deionized water is used as a non-biocide treated control. After each contact time, the pegs are washed with sterile 0.85% NaCl and the bacteria are released from the biofilm on the surface of each peg into sterile 0.85% NaCl by sonication (see Ceri et al., Journal of Clinical Microbiology 1999, 37: 1771-1776). The viable bacteria are then enumerated in TSB, using a serial dilution method.

[3] = Stability against hydrolysis (HPLC level remaining in buffered dilute solutions)
[4] = buffer
[5] = test system: Biofilms of P. aeruginosa ATCC 10145; assay: Biofilm removal evaluation (crystal violet, OD 580 nm); type: cell-based; settings: 25, 50, 100 ppm, 4 hr and 24 hr, 37° C.
Method: The Calgary biofilm device is used to prepare biofilms of P. aeruginosa ATCC 10145. TSB is used as the culture medium and biofilms are allowed to develop over a period of 42 hours. […] Concentrations of the actives tested are 25 ppm, 50 ppm, 100 ppm in sterile diluted salts solution as the test medium. The treatment is conducted at 37° C. for 4 hr and 24 hr, respectively. Sterile deionized water is used as an untreated control. After treatment, the pegs are washed with sterile 0.85% NaCl and then the biomass/biofilm on each peg is measured (see Stepanovic et al., Journal of Microbiological Methods, 2000, 40, 175-179). First the biofilm is fixed with 99% methanol and, after air drying, the pegs are stained with 2% (w/v) crystal violet and washed with tap water. The pegs are then air dried and the crystal violet bound to the biofilm is extracted with 33% glacial acetic acid. The optical density (OD) of the extracted solution is measured at 580 nm. The results are depicted in FIG. 2.

Structure (SMILES): O=CCCCC=O [Glutaraldehyde]
- Active concentration required for complete kill (6 log reduction) (Free Legionella; 2 hours exposure): 10 ppm
- Active concentration required for complete kill (6 log reduction) (Free Legionella; 24 hours exposure): 5 ppm
- Active concentration required for complete kill (6 log reduction) ([1]; 2 hours exposure): 20 ppm
- Active concentration required for complete kill (6 log reduction) ([1]; 24 hours exposure): 15 ppm
- effectiveness against sessile bacteria (reduction of viable sessile bacteria) ([2]; 50 ppm active concentration, 48 h treatment): low effectiveness

Structure (SMILES): N#CC(Br)(Br)C(N)=O [DBNPA, 2,2-Dibromo-3-nitrilopropionamide]
- level remaining (HPLC) ([3]; pH 6.9, T = 30 C., 0 hours): 3991
- level remaining (HPLC) ([3]; pH 6.9, T = 30 C., 2 hours): 4155
- level remaining (HPLC) ([3]; pH 6.9, T = 30 C., 24 hours): 2557
- level remaining (HPLC) ([3]; pH 6.9, T = 30 C., 48 hours): 1361
- level remaining (HPLC) ([3]; pH 6.9, T = 30 C., 72 hours): 918
- level remaining (HPLC) ([3]; pH 6.9, T = 30 C., 96 hours): 658
- level remaining (HPLC) ([3]; pH 8, T = −1 C., 0 hours): 4068
- level remaining (HPLC) ([3]; pH 8, T = −1 C., 2 hours): 3998
- level remaining (HPLC) ([3]; pH 8, T = −1 C., 24 hours): 3506
- level remaining (HPLC) ([3]; pH 8, T = −1 C., 48 hours): 3578
- level remaining (HPLC) ([3]; pH 8, T = −1 C., 72 hours): 3149
- level remaining (HPLC) ([3]; pH 8, T = −1 C., 96 hours): 3070
- level remaining (HPLC) ([3]; pH 9, T = −1 C., 0 hours): 3842
- level remaining (HPLC) ([3]; pH 9, T = −1 C., 2 hours): 2818
- level remaining (HPLC) ([3]; pH 9, T = −1 C., 24 hours): 1256
- level remaining (HPLC) ([3]; pH 9, T = −1 C., 48 hours): 659
- level remaining (HPLC) ([3]; pH 9, T = −1 C., 72 hours): 363
- level remaining (HPLC) ([3]; pH 9, T = −1 C., 96 hours): 239

Structure (SMILES): CCCCCCCCCC[N+](C)(C)CCCCCCCCCC.[Cl-] [DDAC, didecyl dimethyl ammonium chloride]
- Active concentration required for complete kill (6 log reduction) (Free Legionella; 2 hours exposure): 20 ppm
- Active concentration required for complete kill (6 log reduction) (Free Legionella; 24 hours exposure): 15 ppm
- Active concentration required for complete kill (6 log reduction) ([1]; 2 hours exposure): 60 ppm
- Active concentration required for complete kill (6 log reduction) ([1]; 24 hours exposure): 40 ppm

Structure (SMILES): NC(=O)C(Br)(Br)C(N)=O [DBMAL, 2,2-Dibromomalonamide]
- level remaining (HPLC) ([4]; 0 h, pH 6.9): 3746
- level remaining (HPLC) ([4]; 0 h, pH 8): 3866
- level remaining (HPLC) ([4]; 0 h, pH 9): 4576
- level remaining (HPLC) ([4]; 2 h, pH 6.9): 4612
- level remaining (HPLC) ([4]; 2 h, pH 8): 4031
- level remaining (HPLC) ([4]; 2 h, pH 9): 4022
- level remaining (HPLC) ([4]; 24 h, pH 6.9): 3857
- level remaining (HPLC) ([4]; 24 h, pH 8): 4191
- level remaining (HPLC) ([4]; 24 h, pH 9): 3891
- level remaining (HPLC) ([4]; 48 h, pH 6.9): 3935
- level remaining (HPLC) ([4]; 48 h, pH 8): 4187
- level remaining (HPLC) ([4]; 48 h, pH 9): 3603
- level remaining (HPLC) ([4]; 72 h, pH 6.9): 3966
- level remaining (HPLC) ([4]; 72 h, pH 8): 4290
- level remaining (HPLC) ([4]; 72 h, pH 9): 4018
- level remaining (HPLC) ([4]; 96 h, pH 6.9): 4212
- level remaining (HPLC) ([4]; 96 h, pH 8): 3883
- level remaining (HPLC) ([4]; 96 h, pH 9): 3456
- Calculated Percent Reduction of the Active Ingredient ([3]; pH 6.9, T = 30 C., 48 hours): 0%
- Calculated Percent Reduction of the Active Ingredient ([3]; pH 6.9, T = 30 C., 72 hours): 0%
- Calculated Percent Reduction of the Active Ingredient ([3]; pH 8, T = −1 C., 48 hours): 0%
- Calculated Percent Reduction of the Active Ingredient ([3]; pH 8, T = −1 C., 72 hours): 0%
- Calculated Percent Reduction of the Active Ingredient ([3]; pH 8, T = −1 C., 96 hours): 0%
- Calculated Percent Reduction of the Active Ingredient ([3]; pH 9, T = −1 C., 48 hours): 21%
- Calculated Percent Reduction of the Active Ingredient ([3]; pH 9, T = −1 C., 72 hours): 12%
- Calculated Percent Reduction of the Active Ingredient ([3]; pH 9, T = −1 C., 96 hours): 24%
- biofilm removal [5]: overall better biofilm removal than DBNPA
- level needed for 6 log kill of AfLp relative to that needed for free cells ([1]; corresponding time points (2 and 24 hours)): about twice
- effectiveness against sessile bacteria (reduction of viable sessile bacteria) ([2]; 12.5-100 ppm, 4, 24 and 48 hours, in general): more effective than DBNPA
- effectiveness against sessile bacteria (reduction of viable sessile bacteria) ([2]; 25 ppm active concentration, efficacy increases with contact time): very effective
